Consider 25 compounds from patent publication US4207316A, “Novel 17-substituted 11 β-hydroxy steroids of the pregnane series, their manufacture, preparation and use” (Schering Aktiengesellschaft, priority 1978, dated 1980).

Read-outs that look alike come from different tables or passages of the source.

A word on the ED50: it is the midpoint of the dose-response relation.

For assay [1], the system named is paw edema (Mycobacterium butyricum suspension). The experiment in a line: adjuvant edema test (systemic effectiveness). It is filed as in vivo, SPF rats. To be noted: for ED50: Mycobacterium. The procedure:
The systemic effectiveness of the compounds can be determined with the aid of the adjuvant edema test as follows:
SPF rats weighing 130-150 g. are injected in the right hind paw, for producing a center of inflammation, with 0.1 ml. of a 0.5% Mycobacterium butyricum suspension (obtainable from the U.S. company Difco). Prior to injection, the paw volume of the rats is measured. Twenty-four hours after injection, the paw volume is measured once again to determine the extent of the edema. Thereafter, varying amounts of the test compound--dissolved in a mixture of 29% benzyl benzoate and 71% castor oil--are administered orally or subcutaneously to the rats. After another 24 hours, the paw volume is again determined.
The control animals are treated in the same way, except that they are injected with a benzyl benzoate-castor oil mixture free of test compound.
From the paw volumes determined, the amount of test compound required for attaining a 50% reduction in volume of the experimentally produced paw edema is calculated in the usual way.
The following tables indicate the thus-obtained test results, wherein in each case the compounds of this invention are compared with the conventional corticoids contained in commercially available preparations which are most analogous in structure.

Assay [2] concerns erythema of stripped skin (vasoconstriction). Put plainly: vasoconstriction test (topical efficacy), difference in degree of efficacy vs diflucortolone 21-valerate (DFV). It is filed as in vivo, healthy test persons (human). To be noted: 0.1 p.p.m. active agent, positive = more favorable than DFV. The procedure: The topical efficacy can be determined as follows using the vasoconstriction test.
The test was conducted on respectively eight healthy test persons of both sexes, who had not received any local corti costeroid treatment within the preceding two weeks. After the stratum corneum on the test persons' backs was removed down to the stratum lucidum (20-40 times application and tearing off of an adhesive film), respectively 0.1 g. of the preparations was applied to areas of a size of 4 cm^2 without protective dressing. To avoid the application of the identical preparation to identical skin areas, the application is done in a rotating fashion. The vasoconstriction is evaluated visually after 4 and 8 hours by the investigator in accordance with the following grades of effectiveness: 1=absolute fading; 2=minor residual erythema; 3=medium-grade erythema, reddening intensity in the central zone of stripped, untreated and undamaged skin; 4=erythema with minor fading; 5=no fading, or intensification of erythema.
The individual evaluations were averaged.
In each test series, diflucortolone 21-valerate (=6α,9α-difluoro-11β-hydroxy-16α-methyl-21-valeryloxy-1,4-pregnadiene-3,20-dione=DFV) is utilized as the reference compound.
The difference Δ of the average degrees of efficacy of DFV and of the test compound determined in the individual series of investigations is calculated in each case. Positive deviations Δ show a more favorable evaluation: negative deviations show a more unfavorable evaluation of the test compound as compared to DFV.
The tables set forth below list the observed test results obtained when treating the test persons with a preparation containing 0.1 p.p.m. of active agent.

[3] abbreviates: rats, oral, 24 h after administration, read-out: Adjuvant Edema Test ED50 p.o. (50% reduction in volume of paw edema).
Where [4] appears, read: rats, subcutaneous, 24 h after administration.
[5] abbreviates: rats, oral, 24 h after administration.
The mark [6] stands for this setting: sc, rats, subcutaneous, 24 h after administration, read-out: Adjuvant Edema Test ED50 s.c. (50% reduction in volume of paw edema).

For `COCO[C@]1(C(=O)CO)CC[C@H]2[C@@H]3CCC4=CC(=O)C=C[C@]4(C)[C@H]3[C@@H](O)C[C@@]21C` [compound 9], the ED50 in assay [1] (setting [3]) worked out at 9.8 mg/kg.

For “21-acetoxy-11β-hydroxy-17α-methoxymethoxy-4-pregnene-3,20-dione [Example 18]”, the “Adjuvant Edema Test ED50 s.c. (50% reduction in volume of paw edema)” value in assay [1] (setting [4]) came to 0.13 mg./kg. Animal.

For the compound “11β,21-Dihydroxy-17α-methoxymethoxy-1,4-pregnadiene-3,20-dione [No. 9]”, in assay [1] (setting [4]), the “Adjuvant Edema Test ED50 s.c. (50% reduction in volume of paw edema)” value was “about 3 mg./kg. Animal”. Moreover, the “Vasoconstriction Test Δ After 8 h. (difference of average degrees of efficacy of DFV and test compound)” value in assay [2] is listed as “+0.4”.

As to “11β,21-Dihydroxy-17α-propoxymethoxy-4-pregnene-3,20-dione [No. 4]”, in assay [1] (setting [4]), the “Adjuvant Edema Test ED50 s.c. (50% reduction in volume of paw edema)” value came out at 3.2 mg./kg. Animal. Further, in assay [2], the “Vasoconstriction Test Δ After 4 h. (difference of average degrees of efficacy of DFV and test compound)” value was “+0.4”; the “Vasoconstriction Test Δ After 8 h. (difference of average degrees of efficacy of DFV and test compound)” value is reported as “+0.7”.

“21-Butyryloxy-11β-hydroxy-17α-methoxymethoxy-1,4-pregnadiene-3,20-dione [No. 12]”: the “Adjuvant Edema Test ED50 s.c. (50% reduction in volume of paw edema)” value in assay [1] (setting [4]) is given as “about 1 mg./kg. Animal”. In assay [2], the “Vasoconstriction Test Δ After 4 h. (difference of average degrees of efficacy of DFV and test compound)” value was “+0.5”; the “Vasoconstriction Test Δ After 8 h. (difference of average degrees of efficacy of DFV and test compound)” value is on record as “+0.2”.

Turning to “17α-Ethoxymethoxy-11β,21-dihydroxy-4-pregnene-3,20-dione [No. 3]”, the “Adjuvant Edema Test ED50 p.o. (50% reduction in volume of paw edema)” value in assay [1] (setting [5]) worked out at 22 mg./kg. Animal. Also, the “Adjuvant Edema Test ED50 s.c. (50% reduction in volume of paw edema)” value in assay [1] (setting [4]) stood at 3.0 mg./kg. Animal. For the same compound, in assay [2], the “Vasoconstriction Test Δ After 4 h. (difference of average degrees of efficacy of DFV and test compound)” value is listed as -0.3; the “Vasoconstriction Test Δ After 8 h. (difference of average degrees of efficacy of DFV and test compound)” value was 0.0.

In the case of `COCO[C@]1(C(=O)CO)CC[C@H]2[C@@H]3CCC4=CC(=O)CC[C@]4(C)[C@H]3[C@@H](O)C[C@@]21C` [compound 2], the ED50 in assay [1] (setting [6]) came to 13 mg/kg; in assay [1] (setting [3]) it was 67 mg/kg.

With `C[C@]12CCC(=O)C=C1CC[C@@H]1[C@@H]2[C@@H](O)C[C@@]2(C)[C@H]1CC[C@]2(OC1CCCCO1)C(=O)CO` (stereo partly drawn) [compound 7], in assay [1] (setting [6]), the ED50 was 12 mg/kg.

Take `CCOCO[C@]1(C(=O)CO)CC[C@H]2[C@@H]3CCC4=CC(=O)CC[C@]4(C)[C@H]3[C@@H](O)C[C@@]21C` [compound 3]: in assay [1] (setting [6]), the ED50 turned out to be 14.5 mg/kg.

As to `CCCOCO[C@]1(C(=O)CO)CC[C@H]2[C@@H]3CCC4=CC(=O)CC[C@]4(C)[C@H]3[C@@H](O)C[C@@]21C` [compound 4], in assay [1] (setting [6]), the ED50 is around 10 mg/kg.

In the case of `C[C@]12C=CC(=O)C=C1CC[C@@H]1[C@@H]2[C@@H](O)C[C@@]2(C)[C@H]1CC[C@]2(O)C(=O)CO` [compound 8], the ED50 was found to be 8.6 mg/kg in assay [1] (in Rattus norvegicus, po, 24 h, read-out: Adjuvant Edema Test ED50 p.o. (50% reduction in volume of paw edema)) and 2.6 mg/kg in assay [1] (in Rattus norvegicus, sc, 24 h, read-out: Adjuvant Edema Test ED50 s.c. (50% reduction in volume of paw edema)).

Consider `CC(C)OCO[C@]1(C(=O)CO)CC[C@H]2[C@@H]3CCC4=CC(=O)CC[C@]4(C)[C@H]3[C@@H](O)C[C@@]21C` [compound 5], for which the ED50 in assay [1] (setting [6]) is above 30 mg/kg. Moreover, in assay [1] (rats, subcutaneous, at 30 mg./kg.), the “Adjuvant Edema Test, percentage in parentheses beside ED50 s.c. bound” value is 42%.

Regarding “21-Acetoxy-11β-hydroxy-17α-methoxymethoxy-1,4-pregnadiene-3,20-dione [No. 10]”, in assay [1] (setting [4]), the “Adjuvant Edema Test ED50 s.c. (50% reduction in volume of paw edema)” value is reported as 3.0 mg./kg. Animal. In addition, in assay [2], the “Vasoconstriction Test Δ After 4 h. (difference of average degrees of efficacy of DFV and test compound)” value is reported as “+0.5”; the “Vasoconstriction Test Δ After 8 h. (difference of average degrees of efficacy of DFV and test compound)” value is listed as “+1.0”.

Regarding `CCCCOCO[C@]1(C(=O)CO)CC[C@H]2[C@@H]3CCC4=CC(=O)CC[C@]4(C)[C@H]3[C@@H](O)C[C@@]21C` [compound 6], in assay [1] (setting [6]), the ED50 stood at 20 mg/kg.

With “17α-Butoxymethoxy-11β,21-dihydroxy-4-pregnene-3,20-dione [No. 6]”, the “Adjuvant Edema Test ED50 s.c. (50% reduction in volume of paw edema)” value in assay [1] (setting [4]) is on record as “about 1 mg./kg. Animal”. In assay [2], the “Vasoconstriction Test Δ After 4 h. (difference of average degrees of efficacy of DFV and test compound)” value is reported as “+0.9”; the “Vasoconstriction Test Δ After 8 h. (difference of average degrees of efficacy of DFV and test compound)” value is on record as “+1.0”.

For the compound `COCO[C@]1(C(=O)COC(C)=O)CC[C@H]2[C@@H]3CCC4=CC(=O)C=C[C@]4(C)[C@H]3[C@@H](O)C[C@@]21C` [compound 10], in assay [1] (setting [6]), the ED50 was above 3 mg/kg. Moreover, the “Adjuvant Edema Test, percentage in parentheses beside ED50 s.c. bound” value in assay [1] (rats, subcutaneous, at 3 mg./kg.) is on record as 25%.

For “21-acetoxy-17α-methoxymethoxy-4-pregnene-3,11,20-trione [Example 24]”, the “Adjuvant Edema Test ED50 s.c. (50% reduction in volume of paw edema)” value in assay [1] (rats, subcutaneous, 24 h after administration, 1440 min) turned out to be 3.5 mg./kg. Animal; in assay [1] (rats, subcutaneous, 24 h after administration, listed as 25, 1440 min), 4.0 mg./kg. Animal.

As for `CCCC(=O)O[C@]1(C(=O)CO)CC[C@H]2[C@@H]3CCC4=CC(=O)CC[C@]4(C)[C@H]3[C@@H](O)C[C@@]21C` [compound 1], the ED50 in assay [1] (setting [6]) was 13 mg/kg; in assay [1] (setting [3]), 54 mg/kg.

On to “11β,21-dihydroxy-17α-methoxymethoxy-16β-methyl-4-pregnene- 3,20-dione [Example 17]”, for which the “Adjuvant Edema Test ED50 s.c. (50% reduction in volume of paw edema)” value in assay [1] (setting [4]) was 2.1 mg./kg. Animal.

Regarding “6α-Fluoro-11β,21-dihydroxy-17α-methoxymethoxy-4-pregnene-3,20-dione [No. 25]”, the “Adjuvant Edema Test ED50 p.o. (50% reduction in volume of paw edema)” value in assay [1] (setting [5]) was “about 8 mg./kg. Animal”. In addition, in assay [2], the “Vasoconstriction Test Δ After 4 h. (difference of average degrees of efficacy of DFV and test compound)” value was “+1.0”; the “Vasoconstriction Test Δ After 8 h. (difference of average degrees of efficacy of DFV and test compound)” value is listed as “+1.3”.

In the case of “21-Acetoxy-9α-chloro-11β-hydroxy-17α-methoxymethoxy-4-pregnene-3,20-dione [No. 14]”, the “Adjuvant Edema Test ED50 p.o. (50% reduction in volume of paw edema)” value in assay [1] (setting [5]) is reported as 22 mg./kg. Animal. Further, in assay [2] (listed as 26), the “Vasoconstriction Test Δ After 4 h. (difference of average degrees of efficacy of DFV and test compound)” value is on record as -0.8; the “Vasoconstriction Test Δ After 8 h. (difference of average degrees of efficacy of DFV and test compound)” value is recorded as -0.9. In assay [2] (listed as 27), the “Vasoconstriction Test Δ After 4 h. (difference of average degrees of efficacy of DFV and test compound)” value is on record as “+0.6”; the “Vasoconstriction Test Δ After 8 h. (difference of average degrees of efficacy of DFV and test compound)” value was “+0.6”.

On to “21-butyryloxy-11β-hydroxy-17α-methoxymethoxy-4-pregnene-3,20-dione [Example 20]”, for which the “Adjuvant Edema Test ED50 s.c. (50% reduction in volume of paw edema)” value in assay [1] (setting [4]) is 2.0 mg./kg. Animal.

With “11β-hydroxy-17α-methoxymethoxy-21-trimethylacetoxy-4-pregnene-3,20-dione [Example 21]”, in assay [1] (setting [4]), the “Adjuvant Edema Test ED50 s.c. (50% reduction in volume of paw edema)” value is on record as 3.0 mg./kg. Animal.

Take “11β,21-dihydroxy-17α-(1'-methoxyethoxy)-6α-methyl-1,4-pregnadiene-3,20-dione [Example 12]”: the “Adjuvant Edema Test ED50 s.c. (50% reduction in volume of paw edema)” value in assay [1] (setting [4]) is listed as “about 3 mg./kg. Animal”.

In the case of “11β-hydroxy-17α-methoxymethoxy-21-propionyloxy-4-pregnene-3,20- dione [Example 19]”, the “Adjuvant Edema Test ED50 s.c. (50% reduction in volume of paw edema)” value in assay [1] (setting [4]) amounted to 1.9 mg./kg. Animal. Further, in assay [2], the “Vasoconstriction Test Δ After 4 h. (difference of average degrees of efficacy of DFV and test compound)” value is on record as “+0.5”; the “Vasoconstriction Test Δ After 8 h. (difference of average degrees of efficacy of DFV and test compound)” value was “+0.5”.
